{
  "source": "ChEMBL document CHEMBL1201862",
  "about": "“PubChem BioAssay data set” (2004)",
  "experiment_in_all_cases": "NCI-60 cell line screen, 48 h",
  "key": {"MDA-MB-435": {"tested_on": "MDA-MB-435"}, "SF-268": {"tested_on": "SF-268"}, "SK-OV-3": {"tested_on": "SK-OV-3"}, "NCI-H23": {"tested_on": "NCI-H23"}, "K562": {"tested_on": "K562"}, "HCC 2998": {"tested_on": "HCC 2998"}, "SNB-19": {"tested_on": "SNB-19"}, "SK-MEL-5": {"tested_on": "SK-MEL-5"}, "HOP-62": {"tested_on": "HOP-62"}, "SN12C": {"tested_on": "SN12C"}, "HCT-116": {"tested_on": "HCT-116"}, "ACHN": {"tested_on": "ACHN"}, "SK-MEL-28": {"tested_on": "SK-MEL-28"}, "BT-549": {"tested_on": "BT-549"}, "T47D": {"tested_on": "T47D"}, "M14": {"tested_on": "M14"}, "EKVX": {"tested_on": "EKVX"}, "HT-29": {"tested_on": "HT-29"}, "SF-539": {"tested_on": "SF-539"}, "HL-60": {"tested_on": "HL-60"}, "CAKI-1": {"tested_on": "CAKI-1"}, "MOLT-4": {"tested_on": "MOLT-4"}, "UACC-257": {"tested_on": "UACC-257"}, "OVCAR-4": {"tested_on": "OVCAR-4"}, "HCT-15": {"tested_on": "HCT-15"}, "MDA-N": {"tested_on": "MDA-N"}, "UACC-62": {"tested_on": "UACC-62"}, "IGROV-1": {"tested_on": "IGROV-1"}, "LOX IMVI": {"tested_on": "LOX IMVI"}, "U-251": {"tested_on": "U-251"}, "Hs-578T": {"tested_on": "Hs-578T"}, "786-0": {"tested_on": "786-0"}, "Malme-3M": {"tested_on": "Malme-3M"}, "NCI-H522": {"tested_on": "NCI-H522"}, "NCI-H460": {"tested_on": "NCI-H460"}, "COLO 205": {"tested_on": "COLO 205"}, "SK-MEL-2": {"tested_on": "SK-MEL-2"}, "NCI/ADR-RES": {"tested_on": "NCI/ADR-RES"}, "OVCAR-5": {"tested_on": "OVCAR-5"}, "RPMI-8226": {"tested_on": "RPMI-8226"}, "OVCAR-8": {"tested_on": "OVCAR-8"}, "MCF7": {"tested_on": "MCF7"}, "SF-295": {"tested_on": "SF-295"}, "SR": {"tested_on": "SR"}, "NCI-H226": {"tested_on": "NCI-H226"}, "SNB-75": {"tested_on": "SNB-75"}, "CCRF-CEM": {"tested_on": "CCRF-CEM"}, "OVCAR-3": {"tested_on": "OVCAR-3"}, "RXF 393": {"tested_on": "RXF 393"}, "SW-620": {"tested_on": "SW-620"}, "DU-145": {"tested_on": "DU-145"}, "A498": {"tested_on": "A498"}, "A549": {"tested_on": "A549"}, "KM12": {"tested_on": "KM12"}, "PC-3": {"tested_on": "PC-3"}, "TK-10": {"tested_on": "TK-10"}, "HOP-92": {"tested_on": "HOP-92"}, "UO-31": {"tested_on": "UO-31"}},
  "note": "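Values below derive from 48-hour exposures of cells grown in 96-well plates, with endpoints linearly interpolated between the two concentrations bracketing the appropriate inhibition level. GI50 marks 50% less growth.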 The source made the active and inactive calls. Rule as the data show it: active = GI50 up to about 1.1 µM and inactive = higher.",
  "data": [
    {"smiles": "CCOC(=O)C(C(=O)OCC)=C1NC2(c3ccccc3Nc3ccc(C)cc32)C(C#N)S1", "note": "(stereo not drawn)", "values": [
      {"measurement": "GI50", "setting": "MDA-MB-435", "result": "5.65 µM (inactive)"},
      {"measurement": "GI50", "setting": "SF-268", "result": "9.12 µM (inactive)"},
      {"measurement": "GI50", "setting": "SK-OV-3", "result": "13.4 µM (inactive)"},
      {"measurement": "GI50", "setting": "NCI-H23", "result": "3.56 µM (inactive)"},
      {"measurement": "GI50", "setting": "K562", "result": "4.9 µM (inactive)"},
      {"measurement": "GI50", "setting": "HCC 2998", "result": "3.57 µM (inactive)"},
      {"measurement": "GI50", "setting": "SNB-19", "result": "6.58 µM (inactive)"},
      {"measurement": "GI50", "setting": "SK-MEL-5", "result": "7.73 µM (inactive)"},
      {"measurement": "GI50", "setting": "HOP-62", "result": "11.4 µM (inactive)"},
      {"measurement": "GI50", "setting": "SN12C", "result": "3.24 µM (inactive)"},
      {"measurement": "GI50", "setting": "HCT-116", "result": "5.58 µM (inactive)"},
      {"measurement": "GI50", "setting": "ACHN", "result": "3.47 µM (inactive)"},
      {"measurement": "GI50", "setting": "SK-MEL-28", "result": "18.2 µM (inactive)"},
      {"measurement": "GI50", "setting": "BT-549", "result": "14 µM (inactive)"},
      {"measurement": "GI50", "setting": "T47D", "result": "4.39 µM (inactive)"},
      {"measurement": "GI50", "setting": "M14", "result": "3.92 µM (inactive)"},
      {"measurement": "GI50", "setting": "EKVX", "result": "8.83 µM (inactive)"},
      {"measurement": "GI50", "setting": "HT-29", "result": "3.56 µM (inactive)"},
      {"measurement": "GI50", "setting": "SF-539", "result": "3.72 µM (inactive)"},
      {"measurement": "GI50", "setting": "HL-60", "result": "13.1 µM (inactive)"},
      {"measurement": "GI50", "setting": "CAKI-1", "result": "11.8 µM (inactive)"},
      {"measurement": "GI50", "setting": "MOLT-4", "result": "2.4 µM (inactive)"},
      {"measurement": "GI50", "setting": "UACC-257", "result": "11.3 µM (inactive)"},
      {"measurement": "GI50", "setting": "OVCAR-4", "result": "5.66 µM (inactive)"},
      {"measurement": "GI50", "setting": "HCT-15", "result": 6, "unit": "µM"},
      {"measurement": "GI50", "setting": "MDA-N", "result": "10.6 µM (inactive)"},
      {"measurement": "GI50", "setting": "UACC-62", "result": "9.48 µM (inactive)"},
      {"measurement": "GI50", "setting": "IGROV-1", "result": "7.36 µM (inactive)"},
      {"measurement": "GI50", "setting": "LOX IMVI", "result": "12.1 µM (inactive)"},
      {"measurement": "GI50", "setting": "U-251", "result": "5.57 µM (inactive)"},
      {"measurement": "GI50", "setting": "Hs-578T", "result": "14.2 µM (inactive)"},
      {"measurement": "GI50", "setting": "786-0", "result": "6.79 µM (inactive)"},
      {"measurement": "GI50", "setting": "Malme-3M", "result": "15 µM (inactive)"},
      {"measurement": "GI50", "setting": "NCI-H522", "result": "11.2 µM (inactive)"},
      {"measurement": "GI50", "setting": "NCI-H460", "result": "3.27 µM (inactive)"},
      {"measurement": "GI50", "setting": "COLO 205", "result": "4.04 µM (inactive)"},
      {"measurement": "GI50", "setting": "SK-MEL-2", "result": "8.07 µM (inactive)"},
      {"measurement": "GI50", "setting": "NCI/ADR-RES", "result": "5.2 µM (inactive)"},
      {"measurement": "GI50", "setting": "OVCAR-5", "result": "11.3 µM (inactive)"},
      {"measurement": "GI50", "setting": "RPMI-8226", "result": "2.32 µM (inactive)"},
      {"measurement": "GI50", "setting": "OVCAR-8", "result": "8.61 µM (inactive)"},
      {"measurement": "GI50", "setting": "MCF7", "result": "3.05 µM (inactive)"},
      {"measurement": "GI50", "setting": "SF-295", "result": "9.59 µM (inactive)"},
      {"measurement": "GI50", "setting": "SR", "result": "2.44 µM (inactive)"},
      {"measurement": "GI50", "setting": "NCI-H226", "result": "11.5 µM (inactive)"},
      {"measurement": "GI50", "setting": "SNB-75", "result": "8.55 µM (inactive)"},
      {"measurement": "GI50", "setting": "CCRF-CEM", "result": "4.27 µM (inactive)"},
      {"measurement": "GI50", "setting": "OVCAR-3", "result": "3.39 µM (inactive)"},
      {"measurement": "GI50", "setting": "RXF 393", "result": "6.68 µM (inactive)"},
      {"measurement": "GI50", "setting": "SW-620", "result": "6.59 µM (inactive)"},
      {"measurement": "GI50", "setting": "DU-145", "result": "11.3 µM (inactive)"},
      {"measurement": "GI50", "setting": "A498", "result": "10.3 µM (inactive)"},
      {"measurement": "GI50", "setting": "A549", "result": "3.01 µM (inactive)"},
      {"measurement": "GI50", "setting": "KM12", "result": "4.43 µM (inactive)"},
      {"measurement": "GI50", "setting": "PC-3", "result": "3.56 µM (inactive)"},
      {"measurement": "GI50", "setting": "TK-10", "result": "8.47 µM (inactive)"},
      {"measurement": "GI50", "setting": "HOP-92", "result": "4.26 µM (inactive)"},
      {"measurement": "GI50", "setting": "UO-31", "result": "6.28 µM (inactive)"}
    ]}
  ]
}
